These results are taken from PMC8247886, “Getting a Grip on the Undrugged: Targeting β‐Catenin with Fragment‐Based Methods” (Chemmedchem, 2021).

By Kd is commonly meant a measure of binding affinity in units of concentration.

The target of data set [1] is T1, β-catenin141–305 (Homo sapiens, UniProt P35222).
T1 construct: Amino acids 141-305 of uniprot ID: P35222; GST (cleaved yes); made in house; host or cells: E. coli BL21 (DE3)
T1 sequence (P35222 141-305): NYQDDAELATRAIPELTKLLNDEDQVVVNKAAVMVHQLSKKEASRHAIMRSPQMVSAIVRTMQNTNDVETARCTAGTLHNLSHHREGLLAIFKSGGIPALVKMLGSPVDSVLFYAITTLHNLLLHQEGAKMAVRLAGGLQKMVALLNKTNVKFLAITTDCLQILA
Briefly: 2D 15N NMR (TROSY/HSQC/HMQC) detected binding and Kd titration. How it is done: The construct for expression of β-catenin141-305 (Amino acids 141-305 of uniprot ID: P35222) is based on the previously reported R4 construct1. The plasmid was used to transform E. coli, strain BL21 (DE3) cells (Invitrogen). For protein expression, an overnight culture in LB-medium supplemented ampicillin (100 µg/mL) at 37 °C was prepared and diluted the next day with fresh 2xYT-medium. At OD600 of 0.8 the culture was cooled down to 18 °C and after induction with 0.5 mM IPTG incubated for 20 h. Cell pellets obtained by centrifugation at 5000 rpm were stored at - 20 °C. Cells were solubilized in buffer A (2X Dulbecco’s PBS; 500 mM NaCl; 10 % Glycerol; 0.5 mM TCEP; cOmplete™ Protease Inhibitor Cocktail; pH 7.4) and disrupted by sonication (Sonopuls, Bandelin) on ice. After 30 min the sonicated lysate was clarified by centrifugation (50 min, 13500 rpm, 4 °C). The supernatant was mixed with 20 mL Glutathione Sepharose® 4B resin (GE Healthcare) slurry, washed in lysis buffer, and steered for 3 hours on ice. The beads were spun down, loaded into a XK16 column cartridge and washed with lysis buffer until baseline. The protein was eluted with buffer B (2X Dulbecco’s PBS; 500 mM NaCl; 10 % Glycerol; 0.5 mM TCEP;; pH 7.4) + 25 mM L-Glutathione reduced. After cleavage with 2000 units Human Alpha Thrombin (Enzyme Research Laboratories) at room temperature overnight, the protein was collected in the flow-through fraction of a second GST run (GSTrap HP 5 mL column; GE Healthcare) using buffer B. The flow-through was concentrated by centrifugation using an Amicon© Ultra 15 mL Centrifugal Filter (Merck Millipore) and loaded onto a HiLoad Superdex S75 column (GE Healthcare) equilibrated with 50 mM Tris; 200 mM NaCl; 3 mM DTT; pH 8.
Fractions were analyzed by SDS-PAGE and fractions containing the desired protein were pooled and concentrated with an Amicon© Ultra 15 mL Centrifugal Filter (Merck Millipore). […]
For confirmation of hits obtained from STD-NMR by 2D 15N TROSY NMR4 a Bruker Avance III 600 MHz instrument with a 5 mm cryo-TCI probe and z-gradient was used. The experimental set up (automated sample preparation and transfer into the magnet by a Tecan Freedom Evo pipetting robot and a Bruker Sample Rail system, respectively) was identical. Each sample contained 25 uM 15N labeled β-catenin141-305 25 mM sodium phosphate, 150 mM sodium chloride, 100 mM sodium nitrate, 0.5mM TCEP pH 6.8 in H2O at 25 °C and 8% (v/v) D2O. The protein was incubated with 500 uM fragment in a 2.5 mm NMR tube at 25 °C and a d6DMSO concentration of 1%. Spectra were recorded with 48 transients and 64 data points in the indirect dimension. Manual comparison of the spectrum in the presence of the to be tested fragment with the DMSO reference spectrum reveal either line broadening or chemical shift perturbation of cross peaks. Both effects are indicative for compound binding. All processing and analysis was done with the Topspin 2.1 software (Bruker BioSpin). Further spectral comparisons were performed with the FELIX software package (Felix NMR Inc.) to combine manual with automated analysis5. […]
700MHz spectrometer equipped with a cryogenically cooled 5mm TCI probe. […]
The
WaterLOGSY pulse sequence was used as described before7. Selective water inversion was achieved with a double excitation sculpting element employing water selective Gaussian refocusing pulses (inversion bandwidth of 0.5 ppm, pulse length of 7.5 ms). The number of scans was set to 2048. Sample concentrations were 0.5 mM ligand and 0.25–10 µM β-catenin135-663 in […]

Data set [2] can be described thus: Solubility in NMR buffer at pH 7.5 by quantitative NMR (maleic acid external standard). To be noted: NMR buffer (Tris/NaCl with 2% DMSO-d6), aqueous buffer, kinetic from dmso stock; NMR buffer pH 7.5; intended concentration 500 or 2000 μM; read-out: Solub. pH 7.5. Format: physicochemical. How it is done: buffer (Tris 25 mM, pH 7.5, NaCl 150 mM) containing 2% DMSO-d6. […]
Solubility of compounds was determined in NMR buffer at pH 7.5 (see above) by integrating the
signal of 250 µM maleic acid as an external standard relative to the integrals of the ligands. If the
intended concentrations of 500 µM respective 2000 µM were reached the value is reported as >
500 µM or > 2000 µM. […]

Data set [3] addresses T1, β-catenin141–305. Briefly: STD-NMR fragment screening in mixtures. Format: binding. To be noted: fragment mixture, 250 µM each, 10 µM protein. An excerpt:
labelling the protein was expressed in Overnight Express™ Autoinduction NMR Medium - ¹⁵N - Novagen (Merck Millipore) according to the technical description and purified as described for the unlabeled protein. The protein of β-catenin135-663 (Amino acids 135-663 of uniprot ID: P35222) and the β-catenin binding domain of human BCL9 (Amino acids 347–392 of uniprot ID: O00512, containing an additional n-terminal glycine) was purchased (Proteros Biostructures GmbH).
Ligand based 1D 1H experiments were carried out on a Bruker Avance II 600 MHz spectrometer with a 5 mm cryo-QCI probe and z-gradients. […] The on and off resonance spectra were recorded in an interleaved fashion to minimize subtraction artifacts. […] After acquisition, the difference spectrum was calculated by subtracting the two individual spectra. […] These were readily assigned by comparing the signals with the respective pre-recorded reference spectra of the individual compounds present in the mixture. […]
For confirmation of hits obtained from STD-NMR by 2D 15N TROSY NMR4 a Bruker Avance III 600 MHz instrument with a 5 mm cryo-TCI probe and z-gradient was used. […] Spectra were recorded with 48 transients and 64 data points in the indirect dimension. […]
1D, GEM by STD and WaterLOGSY experiments were recorded at 298 K on an Avance III 700MHz spectrometer equipped with a cryogenically cooled 5mm TCI probe. […]

Data set [4] has as its target T1, β-catenin141–305. Briefly: Microscale Thermophoresis (MST) screening and Kd determination. The data set is classed as binding. To be noted: assay validation; PBS pH 6.8, 100 mM NaNO3, 0.5 mM TCEP, 0.05% Tween-20, 25 °C. As for the experimental part: buffer (Tris 25 mM, pH 7.5, NaCl 150 mM) containing 2% DMSO-d6. A stock solution of β-catenin135-663 (12.5 µM) was dialyzed before into Tris 25 mM pH 7.6 NaCl 150 mM and centrifuged at 4° C at 15000 rpm for 20 minutes. Intensity ratios Ilogsy/I1D are derived from scaling of the 1D intensity to the corresponding LOGSY intensity. STD GEMs were acquired with 1.5 µM […]
2.0; and 3.0 seconds for the saturation time build up curves to determine the initial rate constants2.
STD experiments were acquired with on and off resonance saturation at +0.1ppm and -40ppm respectively with 1048 scans each.
Solubility of compounds was determined in NMR buffer at pH 7.5 (see above) by integrating the signal of 250 µM maleic acid as an external standard relative to the integrals of the ligands. If the intended concentrations of 500 µM respective 2000 µM were reached the value is reported as > 500 µM or > 2000 µM. Compound 3 only reached a concentration of 1000 µM according to the QNMR experiment even though 2000 µM was intended, it’s solubility is therefore reported as […]
Microscale Thermophoresis.
Fluorescence labeling of β-catenin141-305 with the NT647 dye was achieved using the Monolith NT.115 Protein Labeling Kit RED-NHS according to the manufacturer’s protocol (NanoTemper Technologies, Munich, Germany). The BCL9 peptide was used as positive control for assay development to achieve a reliably detectable change in the thermophoretic mobility ( ΔFnorm). […]
Final assay conditions were 50 nM NT647 labeled β-catenin141-305 in PBS pH 6.8 supplemented with 100 mM NaNO3, 0.5 mM TCEP and 0.05% Tween-20 at 25° C. Fragment screening detected […]
by MST was carried out as previously described8,9. […] Manual inspection of all MST traces was used to reject non-standard traces stemming from protein aggregation, bleaching, or fluorescence quenching. ΔFnorm values (ΔFnorm=Fhot/Fcold) were calculated and the mean values of the duplicates were compared to the mean values of the DMSO negative control. […] Protein integrity over the entire FBS was monitored by the BCL9 peptide positive control. […]
For orientation: In MST a laser heats a spot of the sample, and binding alters the fluorescence response.

The next data set concerns the target β-catenin. Set-up: method as in PMID 17052462. To be noted: previously determined binding affinity; read-out: ITC Kd; cited from earlier work.
Data set [5] concerns the target T1, β-catenin141–305. Briefly: Surface Plasmon Resonance (SPR) Kd determination. Format: binding. To be noted: positive control, n=3; 1:1 binding model. As for the experimental part: Surface Plasmon Resonance (SPR)
A Biacore T200 instrument was used for SPR analysis, β-catenin141-305 was pre-diluted to a concentration of 0.1 mg/mL with 10 mM sodium acetate buffer, pH 5.0 and immobilized at a density of 6000 –7000 response units on flow cell 2 of a Biacore CM5 chip. Carbonic anhydraseII served as a reference protein on flow cell 3 and flow cell 1 was kept blank and used as the reference surface. A mixture of 20 mM Tris, pH 7.5, 150 mM NaCl, 0.5 mM TCEP, 0.005% Tween20, 2 % dimethyl sulfoxide was used as assay buffer. After pre -equilibration of the chip with 10 blank injections, the Kd measurements were performed by injecting a concentration series of analyte (9 concentrations, 1:1 dilutions). BCL9 347-392 served as a positive control. K d values were determined by global fitting of the steady-state response for each of the 9 concentrations to a 1:1 interaction model using the Biacore T200 evaluation software. Each compound was injected three times and […]
average Kd values were calculated from the repeats. The reported data are the mean values of three independent experiments ± standard deviations. […]
Glutamax Supplement (Thermo Fisher Scientific, 35050061) with 10% FCS (GE Healthcare, SH30071.03). Transfections were performed with Lipofectamine LTX Reagent (Thermo Fisher, 15338100) according the manufacturer’s instructions.

`O=C1NCCNc2c1cccc2[N+](=O)[O-]` [Compound 1]: on β-catenin141–305 [1] (500 μM compound), the “chemical shift perturbations (CSPs) in 2D 15N NMR” value is on record as “minor chemical shift perturbation”. Besides, the Kd at β-catenin141–305 [1] (15N NMR titration, single titration, mean of curves of selected cross peaks ± SD, read-out: HSQC Kd) is more than 10000 µM. Further, the solubility in data set [2] was more than 500 µM. The STD-NMR binding entry on β-catenin141–305 [3] is listed as “unambiguously identified as binders”.

As for “BCL9^347−392: β-catenin binding domain of human BCL9 (amino acids 347–392, additional N-terminal glycine), positive control (NPDGLSQEQLEHRERSLQTLRDIQRMLFPDEKEFTGAQSGGPQQNP; additional N-terminal glycine; UniProt O00512 347-392, looked up, fragment) [reference compound]”, the dissociation constant Kd in the data set with β-catenin141–305 [4] was 0.36 µM; on β-catenin it was 0.54 µM; with β-catenin141–305 [5], 0.225 µM.
